Measured values reported in patent publication US20240262804A1, “NITROGEN-CONTAINING HETEROCYCLIC KETONES, PREPARATION METHODS AND MEDICINAL USES THEREOF” (Hansoh Bio LLC, priority 2021, published 2024).

Biological target: bovine cardiac myosin (Bos taurus (Bovine), UniProt Q9BE39)
Test: Myosin inhibitory potency: PK/LDH-coupled ATPase assay on bovine skinned cardiac myofibrils
Assay type: biochemical
Details: pCa=6.25, 50 μM ATP, 25° C., read-out: myosin inhibition activity IC50
Description: The average rates of ATPase inhibition, and the IC50 values are determined by Victor Nivo multimode plate reader (PerkinElmer, USA).
As to the assays background, a biochemical assay couples the ATPase activity of bovine cardiac myosin to an enzymatic coupling system consisting of pyruvate kinase and lactate dehydrogenase (PK/LDH) and monitoring the absorbance decrease of NADH (at 340 nm) as a function of time to measure the inhibitory ability of small molecule agents. In the assay, PK converts ADP (Adenosine diphosphate) to ATP (adenosine triphosphate) by converting PEP (phosphoenolpyruvate) to pyruvate. Pyruvate is then converted to lactate by LDH by converting NADH (nicotinamide adenine dinucleotide) to NAD (oxidized nicotinamide adenine dinucleotide).
In our experiments, bovine skinned cardiac myofibrils were isolated from the frozen bovine left ventricle as myosin's source in the ATPase assay. The calcium concentration that achieves a 50% (pCa50 or pCa=6.25) activation of the myofibril system was chosen as the final condition for assessing the activation activity according to the literature (DOI: 10.1074/jbc.M117.776815). Myofibrils ATPase activity was measured in a buffered solution containing 12 mM PIPES (piperazine-N, N′-bis(2-ethane sulfonic acid) and 2 mM magnesium chloride at pH 6.8 (PM12 buffer). Final assay conditions were 1 mg/mL of bovine cardiac myofibrils, 1:20 of stock PK/LDH (Sigma-Aldrich, Cat No. P0294-5X5ML), 50 μM ATP, 1 mM DTT (dithiothreitol), 0.75 mM NADH, 1.5 mM PEP at pCa50 (pCa=6.25). Compounds were dissolved in DMSO (dimethyl sulfoxide). Serial dilution of compounds was created such that the final desired concentration of compound would be achieved in a volume of 150 μL with a fixed DMSO concentration of 2% (v/v). 75 μL of a solution containing bovine cardiac myofibrils, PK/LDH, and calcium were added to a 96 well plate for a 7 point dose-response. In some circumstances, 10 point-response was used to repeat the ATPase assays on compounds of interest. Compounds were added to the myofibrils solution and incubated for 5 minutes. The enzymatic reaction was started with the addition of 75 μL of a solution containing ATP, PEP, NADH, compounds, and calcium. The ATPase activity was measured by reading absorbance at 340 nm in a PerkinElmer Victor Nivo plate reader at 25° C. in kinetic mode for 15 minutes using clear bottom plates. The slopes of the absorbance changes as a function of time for the first 10 minutes were normalized to slopes on the control wells containing all reagents, including DMSO, but without compounds. This normalized rate was then plotted as a function of small molecule concentration in GraphPad prism 9. The data were fitted to a four-parameter fit, and IC50 was calculated using Graphpad Prism 9.

Sequence of bovine cardiac myosin (Q9BE39 whole entry): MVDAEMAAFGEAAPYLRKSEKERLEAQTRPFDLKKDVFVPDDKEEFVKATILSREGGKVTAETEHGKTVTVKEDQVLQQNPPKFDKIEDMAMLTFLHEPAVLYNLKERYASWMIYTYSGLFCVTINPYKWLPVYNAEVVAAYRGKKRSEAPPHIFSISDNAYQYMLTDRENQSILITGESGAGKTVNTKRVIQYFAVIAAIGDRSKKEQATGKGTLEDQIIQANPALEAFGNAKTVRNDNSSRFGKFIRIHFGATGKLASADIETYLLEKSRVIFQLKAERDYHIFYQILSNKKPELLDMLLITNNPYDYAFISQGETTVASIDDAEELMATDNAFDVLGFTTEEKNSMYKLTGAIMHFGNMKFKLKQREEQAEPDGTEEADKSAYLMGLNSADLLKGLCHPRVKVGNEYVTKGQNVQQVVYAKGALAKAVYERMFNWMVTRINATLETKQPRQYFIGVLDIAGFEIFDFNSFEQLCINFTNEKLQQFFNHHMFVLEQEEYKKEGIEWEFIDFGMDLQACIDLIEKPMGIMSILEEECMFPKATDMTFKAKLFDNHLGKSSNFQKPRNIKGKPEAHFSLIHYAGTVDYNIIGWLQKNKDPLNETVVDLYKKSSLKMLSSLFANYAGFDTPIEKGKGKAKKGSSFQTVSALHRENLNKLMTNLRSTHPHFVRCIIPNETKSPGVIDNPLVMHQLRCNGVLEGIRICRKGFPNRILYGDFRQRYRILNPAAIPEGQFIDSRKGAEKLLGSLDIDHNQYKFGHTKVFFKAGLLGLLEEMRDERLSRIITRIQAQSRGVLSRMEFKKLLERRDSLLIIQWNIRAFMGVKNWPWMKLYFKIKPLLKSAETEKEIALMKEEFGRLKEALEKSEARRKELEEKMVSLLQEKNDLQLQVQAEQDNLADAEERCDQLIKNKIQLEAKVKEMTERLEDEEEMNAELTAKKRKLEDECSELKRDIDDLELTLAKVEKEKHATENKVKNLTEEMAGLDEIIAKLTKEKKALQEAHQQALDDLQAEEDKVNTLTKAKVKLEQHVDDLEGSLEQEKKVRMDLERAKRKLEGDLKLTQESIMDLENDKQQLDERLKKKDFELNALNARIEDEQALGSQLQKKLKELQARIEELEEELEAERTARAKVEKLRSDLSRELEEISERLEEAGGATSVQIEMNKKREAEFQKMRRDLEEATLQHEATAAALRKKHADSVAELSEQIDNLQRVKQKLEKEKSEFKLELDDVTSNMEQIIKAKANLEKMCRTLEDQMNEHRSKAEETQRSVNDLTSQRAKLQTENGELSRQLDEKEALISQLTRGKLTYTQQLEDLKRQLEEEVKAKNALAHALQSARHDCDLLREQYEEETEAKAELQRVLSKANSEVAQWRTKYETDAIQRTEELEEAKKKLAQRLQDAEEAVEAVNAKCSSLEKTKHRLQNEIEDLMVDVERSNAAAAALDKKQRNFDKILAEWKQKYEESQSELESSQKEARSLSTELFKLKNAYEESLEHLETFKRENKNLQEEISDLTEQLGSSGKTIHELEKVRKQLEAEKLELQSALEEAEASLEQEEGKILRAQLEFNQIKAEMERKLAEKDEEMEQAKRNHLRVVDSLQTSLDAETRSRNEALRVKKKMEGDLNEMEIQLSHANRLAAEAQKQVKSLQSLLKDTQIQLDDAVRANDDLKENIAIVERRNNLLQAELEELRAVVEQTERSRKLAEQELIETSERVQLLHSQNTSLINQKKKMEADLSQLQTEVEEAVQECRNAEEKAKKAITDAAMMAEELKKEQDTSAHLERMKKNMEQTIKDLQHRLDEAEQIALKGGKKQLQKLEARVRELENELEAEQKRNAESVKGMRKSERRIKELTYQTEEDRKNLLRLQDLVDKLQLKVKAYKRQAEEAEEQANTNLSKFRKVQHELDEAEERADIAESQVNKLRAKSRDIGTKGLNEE
Sequence of bovine cardiac myosin (P85100 whole entry partner): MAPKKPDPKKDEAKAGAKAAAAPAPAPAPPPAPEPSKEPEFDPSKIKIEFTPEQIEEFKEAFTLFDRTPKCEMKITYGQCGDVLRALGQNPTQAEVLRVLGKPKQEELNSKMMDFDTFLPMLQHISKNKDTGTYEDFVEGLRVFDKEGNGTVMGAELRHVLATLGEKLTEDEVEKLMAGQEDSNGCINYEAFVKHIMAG
Sequence of bovine cardiac myosin (Q3SZE5 whole entry partner): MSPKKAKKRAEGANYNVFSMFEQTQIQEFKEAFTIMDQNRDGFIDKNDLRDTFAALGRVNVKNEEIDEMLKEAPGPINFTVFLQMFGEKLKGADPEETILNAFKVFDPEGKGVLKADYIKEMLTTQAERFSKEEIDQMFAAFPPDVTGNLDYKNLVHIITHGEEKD

| SMILES | IC50 [nM] |
| --- | --- |
| CC(Nc1nc(=O)n(C2CCOCC2)c(=O)[nH]1)c1ccccc1O (stereo not shown) [Example 101] | 10600 |
| C[C@H](Nc1nc(=O)n(C2CCOCC2)c(=O)[nH]1)c1cccc(C2CCOCC2)c1 [Example 207] | 1320 |
| CC(Nc1nc(=O)n(C2CCOCC2)c(=O)[nH]1)c1cc(F)ccc1F (stereo not shown) [Example 127] | 1830 |
| C[C@@H](Nc1nc(=O)n(C2CCOCC2)c(=O)[nH]1)c1cccc(C2CC2)c1 [Example 306] | 1220 |
| Cc1ccccc1-c1cccc([C@H](C)Nc2nc(=O)n(C3CCOCC3)c(=O)[nH]2)c1 [Example 225] | 820 |
| C[C@H](Nc1nc(=O)n(C2(C)CCC2)c(=O)[nH]1)C1CCCCC1 [Example 89] | 8640 |
| Cc1cccc([C@H](C)Nc2nc(=O)n([C@H]3CC[C@@H](NC(=O)OC(C)(C)C)CC3)c(=O)[nH]2)c1 [Example 96] | 4580 |
| C[C@H](Nc1nc(=O)n(C2CCOCC2)c(=O)[nH]1)c1c(F)cccc1Cl [Example 13] | 1300 |
| C[C@H](Nc1nc(=O)n(C2CCOCC2)c(=O)[nH]1)c1cccc(F)c1 [Example 124] | 1740 |
| CC(O)c1cccc([C@@H](Nc2nc(=O)n(C(C)C)c(=O)[nH]2)C(F)F)c1 (stereo partly shown) [Example 267] | 410 |
| C[C@H](Nc1nc(=O)n(C2CCOCC2)c(=O)[nH]1)c1cccc(-c2ccncc2)c1 [Example 221] | 2530 |
| C[C@H](Nc1nc(=O)n(C2CCOCC2)c(=O)[nH]1)c1cccc(CC(F)(F)F)c1 [Example 274] | 390 |
| C[C@H](Nc1nc(=O)n([C@@H](C)C(F)(F)F)c(=O)[nH]1)C1CCCCC1 [Example 14] | 1170 |
| CO[C@@H]1COCC[C@H]1n1c(=O)nc(N[C@@H](C)c2cccc(C)c2)[nH]c1=O [Example 299] | 1180 |
| C[C@H](Nc1nc(=O)n(C2CCOCC2)c(=O)[nH]1)c1ccc2c(c1)OC(F)(F)O2 [Example 298] | 880 |
| C[C@H](Nc1nc(=O)n(-c2ccccn2)c(=O)[nH]1)C1CCCCC1 [Example 57] | 7400 |
| Cc1cccc([C@H](C)Nc2nc(=O)n(C3CCOC3)c(=O)[nH]2)c1 (stereo partly shown) [Example 95] | 7320 |
| Cc1ccc([C@H](C)Nc2nc(=O)n(C3CCOCC3)c(=O)[nH]2)cc1F [Example 161] | 1050 |
| C[C@H](Nc1nc(=O)n(C2CCOCC2)c(=O)[nH]1)c1cccc(-c2cc[nH]n2)c1 [Example 227] | 1670 |
| COC(=O)c1ccc([C@H](C)Nc2nc(=O)n(C3CCOCC3)c(=O)[nH]2)cc1 [Example 247] | 2420 |
| COCCN1CCC(n2c(=O)nc(N[C@@H](C)C3CCCCC3)[nH]c2=O)CC1 [Example 33] | 3860 |
| CC(=O)N1CCC(c2cccc([C@H](C)Nc3nc(=O)n(C4CCOCC4)c(=O)[nH]3)c2)CC1 [Example 329] | 1240 |
| CC(C)n1c(=O)nc(N[C@@H](C)c2cccc(C(F)(F)F)c2)[nH]c1=O [Example 322] | 1210 |

| SMILES | IC50 [nM] |
| --- | --- |
| C[C@H](Nc1nc(=O)n([C@H]2CCOC[C@H]2F)c(=O)[nH]1)c1cccc(C(F)(F)F)c1 [Example 310] | 1490 |
| Cc1nccn1-c1cccc(C(C)Nc2nc(=O)n(C3CCOCC3)c(=O)[nH]2)c1 (stereo not shown) [Example 219] | 3380 |
| C[C@H](Nc1nc(=O)n(C2CCOCC2)c(=O)[nH]1)c1cccc(C2=CCCCC2)c1 [Example 331] | 1110 |
| CC(C)n1c(=O)nc(N[C@@H](C)c2cccc(C(C)(C)O)c2)[nH]c1=O [Example 307] | 1870 |
| Cc1ccc(C(C)Nc2nc(=O)n(C3CCOCC3)c(=O)[nH]2)cc1 (stereo not shown) [Example 134] | 3640 |
| CC(O)c1cccc([C@@H](Nc2nc(=O)n(C3CCOCC3)c(=O)[nH]2)C(F)F)c1 (stereo partly shown) [Example 266] | 1980 |
| CC(C)n1c(=O)nc(NC(C2CCCCC2)C2CC2)[nH]c1=O (stereo not shown) [Example 69] | 8430 |
| C[C@H](Nc1nc(=O)n(C2CCOCC2)c(=O)[nH]1)c1cccc(OC(F)(F)F)c1 [Example 202] | 490 |
| C[C@H](Nc1nc(=O)n(C2CCOCC2)c(=O)[nH]1)c1cccc(C(C)(C)C#N)c1 [Example 276] | 150 |
| CC(C)n1c(=O)nc(N[C@@H](C)c2ccccc2)[nH]c1=O [Example 3] | 7050 |
| CC(C)n1c(=O)nc(NCCC2CCCCC2)[nH]c1=O [Example 65] | 4230 |
| Cc1cccc([C@H](C)Nc2nc(=O)n(CC(F)(F)F)c(=O)[nH]2)c1 [Example 42] | 9100 |
| CC(Nc1nc(=O)n(C2CCNCC2)c(=O)[nH]1)c1cccc(F)c1 (stereo not shown) [Example 191] | 7630 |
| C[C@H](Nc1nc(=O)n(C2CCOCC2)c(=O)[nH]1)c1cccc(C2=CCOCC2)c1 [Example 208] | 1600 |
| C[C@H](Nc1nc(=O)n(C2CCOCC2)c(=O)[nH]1)C1CCCCC1 [Example 2] | 2450 |
| CCC(Nc1nc(=O)n(C2CCOCC2)c(=O)[nH]1)c1cccc(C)c1 (stereo not shown) [Example 292] | 910 |
| Cc1ccccc1C(C)Nc1nc(=O)n(C2CCNCC2)c(=O)[nH]1 (stereo not shown) [Example 189] | 6720 |
| COc1cccc([C@H](C)Nc2nc(=O)n(C3CCOCC3)c(=O)[nH]2)c1 [Example 326] | 1350 |
| C[C@H](Nc1nc(=O)n(C2CCOCC2)c(=O)[nH]1)c1cc(Cl)cc(Cl)c1 [Example 151] | 1770 |
| CC(=O)N1CC(c2cccc([C@@H](Nc3nc(=O)n(C4CCOCC4)c(=O)[nH]3)C(F)F)c2)C1 [Example 260] | 200 |
| O=c1nc(N[C@H](c2cccc(C3CN(CC(F)(F)F)C3)c2)C(F)F)[nH]c(=O)n1C1CCOCC1 [Example 259] | 450 |
| C[C@H](Nc1nc(=O)n(C2CCOCC2)c(=O)[nH]1)c1cc(C(F)(F)F)cc(C(F)(F)F)c1 [Example 196] | 2670 |
| C[C@H](Nc1nc(=O)n(C2CCOCC2)c(=O)[nH]1)c1cccc(C(O)C(F)(F)F)c1 (stereo partly shown) [Example 348] | 2450 |

| SMILES | IC50 [nM] |
| --- | --- |
| C[C@H](Nc1nc(=O)n(C2CCOCC2)c(=O)[nH]1)c1ccc(Cl)c(F)c1 [Example 166] | 5370 |
| COCCN1CCC(n2c(=O)nc(N[C@@H](C)c3cccc(C)c3)[nH]c2=O)CC1 [Example 38] | 1450 |
| COc1ccccc1[C@H](C)Nc1nc(=O)n(C2CCOCC2)c(=O)[nH]1 [Example 150] | 6630 |
| Cc1cccc([C@H](C)Nc2nc(=O)n(C3CCOCC3(C)C)c(=O)[nH]2)c1 (stereo partly shown) [Example 99] | 9350 |
| Cc1cccc([C@H](C)Nc2nc(=O)n(C3CCCC3)c(=O)[nH]2)c1 [Example 94] | 1750 |
| CC(=O)N1CCC(n2c(=O)nc(N[C@@H](C)c3cccc(C)c3)[nH]c2=O)CC1 [Example 243] | 880 |
| C[C@H](Nc1nc(=O)n(C2CCOCC2)c(=O)[nH]1)c1c(F)cccc1F [Example 12] | 2140 |
| C[C@H](Nc1nc(=O)n(C2CCOCC2)c(=O)[nH]1)c1ccc(F)c(Br)c1 [Example 158] | 520 |
| C[C@H](Nc1nc(=O)n(C2CCN(C3CC3)CC2)c(=O)[nH]1)C1CCCCC1 [Example 32] | 3040 |
| C[C@H](Nc1nc(=O)n(C2CCNC(=O)C2)c(=O)[nH]1)C1CCCCC1 (stereo partly shown) [Example 22] | 13200 |
| Cc1cccc([C@@H](Nc2nc(=O)n(C3CCOCC3)c(=O)[nH]2)C(F)(F)F)c1 [Example 279] | 720 |
| CC(Nc1nc(=O)n(C2CCOCC2)c(=O)[nH]1)c1ccccc1Br (stereo not shown) [Example 119] | 3400 |
| CC(Nc1nc(=O)n(C2CCOCC2)c(=O)[nH]1)c1cccc(Br)c1 (stereo not shown) [Example 120] | 1580 |
| C[C@H](Nc1nc(=O)n(C2CCOCC2)c(=O)[nH]1)c1cccc(C(O)C2CC2)c1 (stereo partly shown) [Example 250] | 4030 |
| CC(C)[C@H](O)c1cccc([C@H](C)Nc2nc(=O)n(C3CCOCC3)c(=O)[nH]2)c1 [Example 345] | 790 |
| CC(Nc1nc(=O)n(C2CCNCC2)c(=O)[nH]1)c1ccc(F)cc1 (stereo not shown) [Example 188] | 4410 |
| C[C@H](Nc1nc(=O)n(C2CCOCC2)c(=O)[nH]1)c1cccc(-n2ccnc2)c1 [Example 200] | 1780 |
| C[C@H](Nc1nc(=O)n(C2CCOCC2)c(=O)[nH]1)c1ccccc1 [Example 46] | 3900 |
| Cc1ccc(F)c([C@H](C)Nc2nc(=O)n([C@@H](C3CC3)C(F)(F)F)c(=O)[nH]2)c1 [Example 312] | 1440 |
| CC(Nc1nc(=O)n(C2CCOCC2)c(=O)[nH]1)C1CCC(F)(F)CC1 (stereo not shown) [Example 118] | 13000 |
| C[C@H](Nc1nc(=O)n([C@H](C)C(F)(F)F)c(=O)[nH]1)C1CCCCC1 [Example 15] | 2160 |
